Assay results reported in patent publication US10156566B2, “Detoxification of microbial virulence factors in oral cavity” (priority 2015, dated 2018).
“And” between values parts separate entries of the source, which are not always exact repeats. Identical values can stand only once. Counter-ions that a name gives are not always drawn.

How the values were obtained:
[1] = tested on: E. coli LPS; test: Displacement of LPS from binding to BODIPY TR cadaverine (Tables 3, 9, 12, 13); conditions: E. coli LPS 15 μg/ml
[2] = tested on: P. gingivalis LPS 1690; format: biochemical
Experimental: (§1) The Limulus Amebocyte Lysate Assay (LAL) is an assay to determine the total amount of lipopolysaccharide (LPS) in the sample tested (Pierce LAL Chromogenic Endotoxin Quantitation Kit, ThermoFischer Scientific, Waltham, Mass.). The assay was performed following manufacturer's instruction. Ninety-six-well microplates were first equilibrated in a heating block for 10 min at 37° C. Fifty μl each of standard or sample was dispensed into the microplate wells and incubated with the plate covered for 5 min at 37° C. Then 50 μl LAL was added to each well.
(§2) Plates were shaken gently and incubated for 10 min at 37° C. 100 μl of chromogenic substrate was added and incubated for 6 min at 37° C.
(§3) The Thermo Scientific Pierce LAL Chromogenic Endotoxin Quantitation Kit is a quantitative endpoint assay for the detection of LPS, which catalyzes the activation of a proenzyme in the modified Limulus Amebocyte Lysate (LAL). The activated proenzyme then splits p-Nitroaniline (pNA) from the colorless substrate, Ac-Ile-Glu-Ala-Arg-pNA. […] Then 50 μl LAL was added to each well. Plates were shaken gently and incubated for 10 min at 37° C. 100 μl of chromogenic substrate was added and incubated for 6 min at 37° C.

[3] = tested on: E. coli LPS; format: biochemical
Experimental: as §1, §2, §3

[4] = tested on: Lipopolysaccharide

1,3-Diphenylacetone (1,3 diphenyl-2-propanone)
LPS displacement % Mean [1]: 11%
LPS displacement % Reading 1 [1]: 16%
LPS displacement % Reading 3 [1]: 5%

CC(O)C(=O)[O-].CC(O)C(=O)[O-].[Zn+2] (racemic) [dl-lactic acid hemizinc salt]
LPS displacement % Mean [1]: 19%
LPS displacement % Reading 1 [1]: 15%
LPS displacement % Reading 3 [1]: 24%

[O-]n1ccccc1=S.[O-]n1ccccc1=S.[Zn+2] [1-Hydroxypyridine-2-thone zinc salt]
Inhibition of LAL activity % [2]: 0%
Inhibition of LAL activity % [3]: 2% and 6%

CC(C=O)Cc1ccc(C(C)C)cc1 (centres unmarked) [3-(4-Isopropylphenyl)-2-methylpropionaldehyde]
LPS displacement % Mean [1]: 39%
LPS displacement % Reading 1 [1]: 21%
LPS displacement % Reading 2 [1]: 29%
LPS displacement % Reading 3 [1]: 65%

CCCCCCCCCCCC(=O)NCCCN(C)C [3-Dodecanamidopropyldimethylamine]
LPS displacement % Mean [1]: 79%
LPS displacement % Reading 1 [1]: 87%
LPS displacement % Reading 2 [1]: 62%
LPS displacement % Reading 3 [1]: 87%

[Cu+].[I-] [Copper(I) iodide]
LPS displacement % Mean [1]: 18%
LPS displacement % Reading 1 [1]: 23%
LPS displacement % Reading 2 [1]: 12%
LPS displacement % Reading 3 [1]: 20%

C=CC[N+](C)(C)CC=C.[Cl-] [Diallyldimethylammonium chloride]
LPS displacement % Mean [1]: 35%
LPS displacement % Reading 1 [1]: 40%
LPS displacement % Reading 2 [1]: 38%
LPS displacement % Reading 3 [1]: 28%

CCCCCCCCCCCCCCCCCC(=O)NCCN(CC)CC [Diethylaminoethyl stearamide]
inhibition [4]: 97.4%
LPS displacement % Mean [1]: 66%
LPS displacement % Reading 1 [1]: 77%
LPS displacement % Reading 2 [1]: 62%
LPS displacement % Reading 3 [1]: 58%

CCCCCCCCCCCC[N+](C)(C)Cc1ccccc1 [Dimethyldodecylbenzylammonium chloride]
inhibition [4]: 98.2%

CCCCCCCC[N+](C)(C)CCCCCCCC [Dioctyldimethylammonium chloride]
inhibition [4]: 93.3%

CCCCCCCCCCCC(=O)NCCO [Dodecanamide MEA]
inhibition [4]: 44.3%

CCCCCCCCCCCC[N+](C)(C)CCOc1ccccc1 [Domiphen bromide, reference compound]
inhibition [4]: 95.5%

CC/C=C\C/C=C\C/C=C\C/C=C\C/C=C\CCCC(=O)O[C@H](COCCCCCCCCCCCCCCCC)COP(=O)([O-])OCC[N+](C)(C)C [Eicosapentaenoyl PAF C-16]
inhibition [4]: 82.7%

CCCCCCCCc1ccc(CCC(N)(CO)CO)cc1 [FTY720, reference compound]
inhibition [4]: 79.1%

CCCCCCCCCCCCCCCC(=O)NCCO [Hexadecanamide MEA]
inhibition [4]: 32.5%

CCCCCCCCCCCCCCCCOC[C@H](CO)OC(C)=O [Hexadecyl Acetyl Glycerol]
inhibition [4]: 42%

CCCCCCCCCCCCCCCCOCC(CO)OC (centres unmarked) [Hexadecyl Methyl Glycerol]
inhibition [4]: 40%

CC(C)CCOC(=O)c1ccccc1 [Isopentyl benzoate]
LPS displacement % Mean [1]: 18%
LPS displacement % Reading 1 [1]: 22%
LPS displacement % Reading 3 [1]: 13%

CC(C)c1ccc2c(c1)c(SC(C)(C)C)c(CC(C)(C)C(=O)O)n2Cc1ccc(Cl)cc1 [MK 886 (sodium salt)]
inhibition [4]: 47.2%

CCCCC/C=C\C/C=C\CCCCCCCC(=O)OC [Methyl linoleate]
inhibition [4]: 36.9%
LPS displacement % Mean [1]: 88%
LPS displacement % Reading 1 [1]: ~100%
LPS displacement % Reading 2 [1]: 53%
LPS displacement % Reading 3 [1]: ~100%

Cc1cc(C(C)(C)CC(C)(C)C)ccc1OCCOCC[N+](C)(C)Cc1ccccc1 [Methylbenzethonium chloride, reference compound]
inhibition [4]: 93%

CCCCCCCCCCCCCCCCOC[C@H](COP(=O)([O-])OCC[N+](C)(C)C)OC(=O)NC [Methylcarbamyl PAF C-16]
inhibition [4]: 59.7%

CCCCCCCCCCCCCC[n+]1ccc(C)cc1.[Cl-] [Myristyl-γ-picolinium chloride]
inhibition [4]: 96.2% and 96%
LPS displacement % Mean [1]: ~100%
LPS displacement % Reading 1 [1]: ~100%
LPS displacement % Reading 2 [1]: ~100%
LPS displacement % Reading 3 [1]: ~100%

CCCCCCCCCCCCN(C)C [N,N-Dimethyldodecylamine]
LPS displacement % Mean [1]: 22%
LPS displacement % Reading 1 [1]: 36%
LPS displacement % Reading 2 [1]: 18%
LPS displacement % Reading 3 [1]: 13%

CCCCC/C=C\C/C=C\C/C=C\C/C=C\CCCC(=O)NCCc1ccc(O)c(O)c1 [N-Arachidonoyl Dopamine]
inhibition [4]: 49.1%

CCCCCCCCCCCCCCCCCCCCCC(=O)NCCS(=O)(=O)O [N-Docosanoyl Taurine]
inhibition [4]: 85.2%

CCCCCCCCCCCCN(CCO)CCO [N-Lauryldiethanolamine]
inhibition [4]: 99.6% and 100%

CCCCCCCCCCCC[n+]1ccccc1.[Cl-] [N-Laurylpyridinium chloride]
inhibition [4]: 96.5%
LPS displacement % Mean [1]: 60%
LPS displacement % Reading 1 [1]: 66%
LPS displacement % Reading 2 [1]: 56%
LPS displacement % Reading 3 [1]: 59%

CCCCCCCCCCCCCC(=O)NCC(=O)O [N-Myristoylglycine]
inhibition [4]: 91.4%
LPS displacement % Mean [1]: 76%
LPS displacement % Reading 1 [1]: ~100%
LPS displacement % Reading 2 [1]: 39%
LPS displacement % Reading 3 [1]: 74%

CCCCCCCC/C=C\CCCCCCCCCCCCCC(=O)NCCS(=O)(=O)O [N-Nervonoyl Taurine]
inhibition [4]: 79.8%

CCCCCCCCCCCCCCCC(=O)NCC(=O)O [N-Palmitoyl Glycine]
inhibition [4]: 85.8%

CCCCCCCC/C=C\CCCCCCCC(=O)NCCO [Oleoylethanolamide]
inhibition [4]: 34.1%

CCCCCCCC/C=C\CCCCCCCCN [Oleyl amine]
inhibition [4]: 99.6%

CCCCCCCCCCCCCCCC(=O)OC[C@H](COP(=O)([O-])OCC[N+](C)(C)C)OC(=O)CCCCCCCC(=O)O [PAz-PC]
inhibition [4]: 72.8%

CCCCCCCCCCCCCCCC(=O)OC[C@H](COP(=O)([O-])OCC[N+](C)(C)C)OC(=O)CCCC=O [POV-PC]
inhibition [4]: 48.7%

CCCCCCCCCCCCCCCCCCN(CCO)CCO [STEARYLDIETHANOLAMINE]
inhibition [4]: 88.1%

CCCCCCCCCCCCCCCCOS(=O)(=O)O [Sodium hexadecyl sulfate]
inhibition [4]: 89.4%

CCCCCCCCCCCCCCCOS(=O)(=O)O [Sodium pentadecyl sulfate]
inhibition [4]: 86.6%

CCCCCCCCCCCCCCCCCC(=O)OCCNC(=O)C[n+]1ccccc1.[Cl-] [Steapyrium chloride]
inhibition [4]: 100%
LPS displacement % Mean [1]: ~100%
LPS displacement % Reading 1 [1]: ~100%
LPS displacement % Reading 2 [1]: 100%
LPS displacement % Reading 3 [1]: ~100%

CCCCCCCCCCCCCCCCCC[N+](C)(C)Cc1ccccc1 [Stearalkonium chloride]
inhibition [4]: 96.5%

CCCCCCCCCCCCCCCCCC[N+](C)(C)C [Steartrimonium chloride]
inhibition [4]: 71.3%

CCCCCCCCCCCCCCCCCC(=O)NCCCN(C)C [Stearylamidopropyldimethylamine]
inhibition [4]: 83.8%
LPS displacement % Mean [1]: 77%
LPS displacement % Reading 1 [1]: 85%
LPS displacement % Reading 2 [1]: 71%
LPS displacement % Reading 3 [1]: 74%

CCCCCCCCCCCCCS(=O)(=O)O [TRIDECYL SULFONIC ACID SODIUM SALT]
inhibition [4]: 95.6%

CCCCCCCCCCCCCC[N+](C)(C)Cc1ccccc1 [Tetradecylbenzyldimethylammonium chloride]
inhibition [4]: 93.8%

C=CCCCCCCCCC=O [Undecylenic aldehyde]
LPS displacement % Mean [1]: 22%
LPS displacement % Reading 1 [1]: 29%
LPS displacement % Reading 3 [1]: 15%

CCCCCC(C=O)=Cc1ccccc1 [alpha-Amylcinnamaldehyde]
LPS displacement % Mean [1]: 15%
LPS displacement % Reading 1 [1]: 17%
LPS displacement % Reading 3 [1]: 13%

CC(C)=CCC/C(C)=C/CC/C(C)=C/CC[C@]1(C)CCc2c(C)c(O)c(C)c(C)c2O1 [alpha.-Tocotrienol]
inhibition [4]: 29.9%

CCCCCCCC/C=C\CCCCCCCC(=O)O [cis-Oleic acid]
inhibition [4]: 61%
LPS displacement % Mean [1]: 31%
LPS displacement % Reading 1 [1]: 54%
LPS displacement % Reading 3 [1]: 9%

CCCCCCCC/C=C\CCCCCCCC(=O)OCCOCCO [diglycol monooleate]
inhibition [4]: 67%

CCCCC/C=C\C/C=C\C/C=C\C/C=C\CCCC(=O)OCC [ethyl arachidonate]
inhibition [4]: 28.7%

CCCCCC/C=C\CCCCCCCC(=O)OCC [ethyl cis-9-hexadecenoate]
inhibition [4]: 31.8%

CCCCC/C=C\C/C=C\CCCCCCCC(N)=O [linoleamide]
inhibition [4]: 75.2%

CCCCCCCCCCCCCCCC(=O)NCCO [palmitamide mea]
inhibition [4]: 13.2%

CCCCC/C=C\C/C=C\CCCCCCCC(=O)O [potassium linoleate]
inhibition [4]: 98.9%

O=C([O-])C(=O)[O-].[K+].[K+] [potassium oxalate]
Inhibition of LAL activity % [2]: 8% and 0%
Inhibition of LAL activity % [3]: 1% and 6%

[F-].[Na+] [sodium fluoride]
Inhibition of LAL activity % [2]: 0%
Inhibition of LAL activity % [3]: 4% and 5%

[Cl][Sn][Cl] [stannous chloride]
Inhibition of LAL activity % [3]: 89% and 65%

CCCCCCCC/C=C\CCCCCCCC(=O)OCC(O)CO (stereo not drawn) [α-glyceryl monooloeate]
inhibition [4]: 49%

CC/C=C\C/C=C\C/C=C\CCCCCCCC(=O)O [α-linoleic acid]
inhibition [4]: 97.9%

CC/C=C\C/C=C\C/C=C\CCCCCCCC(=O)OC [α-linolenic acid methyl ester]
inhibition [4]: 24.9%

CC(C)=CCC/C(C)=C/CC/C(C)=C/CC[C@]1(C)CCc2cc(O)c(C)c(C)c2O1 [γ-Tocotrienol]
inhibition [4]: 38.5%

CC(C)=CCC/C(C)=C/CC/C(C)=C/CC[C@]1(C)CCc2cc(O)cc(C)c2O1 [δ-Tocotrienol]
inhibition [4]: 52.4%

Benzalkonium chloride [reference compound]
inhibition [4]: 97.5%

Laureth-6
inhibition [4]: 100%

Laureth-9
inhibition [4]: 99.9%

Octoxynol-9
inhibition [4]: 9.83%

Quaternium-17
inhibition [4]: 100%

iron(iii) chloride hexahydrate
inhibition [4]: 58.1%
LPS displacement % Mean [1]: ~100%
LPS displacement % Reading 1 [1]: ~100%
LPS displacement % Reading 2 [1]: 100%
LPS displacement % Reading 3 [1]: ~100%
